Results from patent EP2420245A1, “Therapeutic use of agonists or antagonists of bradykinin receptor 1 or 2, for modulation collateral blood vessel growth” (MAX-DELBRÜCK-CENTRUM FÜR MOLEKULARE MEDIZIN, priority 2010, dated 2012).

Legend:
[1] = relative to the natural ligand Lys-desArg-bradykinin; cited from earlier work
[2] = tested on: 3-vessel occlusion (3-VO) cerebral arteriogenesis model in rat; experiment: 3-vessel occlusion (3-VO) cerebral arteriogenesis model: collateral growth / diameter of the posterior cerebral artery (postmortem latex perfusion); format: in vivo; details: rat 3-VO model, antagonist treatment, 3 weeks post 3-VO (Figure 5)
Protocol: Pharmacological modulation of arteriogenesis was analysed using a 3 vessel occlusion (3-VO) model for cerebral arteriogenesis in the rat (Occlusion of both vertebral arteries and one carotid artery). Upon occlusion of three of four blood-supplying arteries to the brain, blood flow is redistributed by the recruitment of collateral pathways such as the posterior cerebral artery to supply the hypoperfusion area with blood. The 3-VO model in the rat has been established since 2003 and is acknowledged as a hypoperfusion model for testing cerebral arteriogenesis (Busch, Buschmann et al. 2003). By using the 3-VO model, relevant therapeutic stimulation of arteriogenesis was shown for instance by the application of GM-CSF (Buschmann, Circulation 2003).
Either by inhibition or stimulation of the bradykinin receptor signalling pathways, arteriogenesis was determined and physiological parameters of the brain were tested.
The characterisation of arteriogenesis was carried out via measurement of the artery or blood vessel diameter (posterior cerebral artery - PCA) in addition to via a measurement of the cerebrovascular reactivity (perfusion reserves in the brain). Cerebrovascular anatomy was studied after maximal vasodilation by a modification of the postmortem latex perfusion method of Maeda et al (Maeda, Hata et al. 1998) .

Question: Which susceptibility toward proteolysis [1] does the source give for `CNCC(=O)N[C@@H](CCCNC(=N)N)C(=O)N1CCC[C@H]1C(=O)N1CCC[C@H]1C(=O)NCC(=O)N[C@@H](Cc1ccccc1)C(=O)N[C@@H](CO)C(=O)N1CCC[C@H]1C(=O)N[C@H](Cc1ccccc1)C(=O)O` [R838, Sar-[D-Phe]des-Arg^9-bradykinin] here?
Answer: The susceptibility toward proteolysis was “lower”.

Question: Which “arteriogenesis (collateral growth)” value [2] does the source give for (Des-Arg^9, Leu^8)-bradykinin [H1960] here?
Answer: The value was “inhibited”.
